This is an account of results in ChEMBL document CHEMBL5131528, “2-Aminoquinazolines as LRRK2 Inhibitors for Treating Parkinson's Disease” (ACS Med Chem Lett, 2022).

Structures are written as SMILES.

The target of the assay is Leucine-rich repeat serine/threonine-protein kinase 2 (Homo sapiens, UniProt Q5S007, G2019S). As to the kind of experiment: Inhibition of GST-tagged truncated human LRRK2 G2019S mutant using fluorescein labeled LRRKtide peptide as substrate preincubated for 15 mins followed by substrate addition and measured after 90 mins in presence of ATP at Km concentration by TR-FRET Lanthascreen assay.
Sequence of Leucine-rich repeat serine/threonine-protein kinase 2 (Q5S007 whole entry G2019S, the tested form may be a part): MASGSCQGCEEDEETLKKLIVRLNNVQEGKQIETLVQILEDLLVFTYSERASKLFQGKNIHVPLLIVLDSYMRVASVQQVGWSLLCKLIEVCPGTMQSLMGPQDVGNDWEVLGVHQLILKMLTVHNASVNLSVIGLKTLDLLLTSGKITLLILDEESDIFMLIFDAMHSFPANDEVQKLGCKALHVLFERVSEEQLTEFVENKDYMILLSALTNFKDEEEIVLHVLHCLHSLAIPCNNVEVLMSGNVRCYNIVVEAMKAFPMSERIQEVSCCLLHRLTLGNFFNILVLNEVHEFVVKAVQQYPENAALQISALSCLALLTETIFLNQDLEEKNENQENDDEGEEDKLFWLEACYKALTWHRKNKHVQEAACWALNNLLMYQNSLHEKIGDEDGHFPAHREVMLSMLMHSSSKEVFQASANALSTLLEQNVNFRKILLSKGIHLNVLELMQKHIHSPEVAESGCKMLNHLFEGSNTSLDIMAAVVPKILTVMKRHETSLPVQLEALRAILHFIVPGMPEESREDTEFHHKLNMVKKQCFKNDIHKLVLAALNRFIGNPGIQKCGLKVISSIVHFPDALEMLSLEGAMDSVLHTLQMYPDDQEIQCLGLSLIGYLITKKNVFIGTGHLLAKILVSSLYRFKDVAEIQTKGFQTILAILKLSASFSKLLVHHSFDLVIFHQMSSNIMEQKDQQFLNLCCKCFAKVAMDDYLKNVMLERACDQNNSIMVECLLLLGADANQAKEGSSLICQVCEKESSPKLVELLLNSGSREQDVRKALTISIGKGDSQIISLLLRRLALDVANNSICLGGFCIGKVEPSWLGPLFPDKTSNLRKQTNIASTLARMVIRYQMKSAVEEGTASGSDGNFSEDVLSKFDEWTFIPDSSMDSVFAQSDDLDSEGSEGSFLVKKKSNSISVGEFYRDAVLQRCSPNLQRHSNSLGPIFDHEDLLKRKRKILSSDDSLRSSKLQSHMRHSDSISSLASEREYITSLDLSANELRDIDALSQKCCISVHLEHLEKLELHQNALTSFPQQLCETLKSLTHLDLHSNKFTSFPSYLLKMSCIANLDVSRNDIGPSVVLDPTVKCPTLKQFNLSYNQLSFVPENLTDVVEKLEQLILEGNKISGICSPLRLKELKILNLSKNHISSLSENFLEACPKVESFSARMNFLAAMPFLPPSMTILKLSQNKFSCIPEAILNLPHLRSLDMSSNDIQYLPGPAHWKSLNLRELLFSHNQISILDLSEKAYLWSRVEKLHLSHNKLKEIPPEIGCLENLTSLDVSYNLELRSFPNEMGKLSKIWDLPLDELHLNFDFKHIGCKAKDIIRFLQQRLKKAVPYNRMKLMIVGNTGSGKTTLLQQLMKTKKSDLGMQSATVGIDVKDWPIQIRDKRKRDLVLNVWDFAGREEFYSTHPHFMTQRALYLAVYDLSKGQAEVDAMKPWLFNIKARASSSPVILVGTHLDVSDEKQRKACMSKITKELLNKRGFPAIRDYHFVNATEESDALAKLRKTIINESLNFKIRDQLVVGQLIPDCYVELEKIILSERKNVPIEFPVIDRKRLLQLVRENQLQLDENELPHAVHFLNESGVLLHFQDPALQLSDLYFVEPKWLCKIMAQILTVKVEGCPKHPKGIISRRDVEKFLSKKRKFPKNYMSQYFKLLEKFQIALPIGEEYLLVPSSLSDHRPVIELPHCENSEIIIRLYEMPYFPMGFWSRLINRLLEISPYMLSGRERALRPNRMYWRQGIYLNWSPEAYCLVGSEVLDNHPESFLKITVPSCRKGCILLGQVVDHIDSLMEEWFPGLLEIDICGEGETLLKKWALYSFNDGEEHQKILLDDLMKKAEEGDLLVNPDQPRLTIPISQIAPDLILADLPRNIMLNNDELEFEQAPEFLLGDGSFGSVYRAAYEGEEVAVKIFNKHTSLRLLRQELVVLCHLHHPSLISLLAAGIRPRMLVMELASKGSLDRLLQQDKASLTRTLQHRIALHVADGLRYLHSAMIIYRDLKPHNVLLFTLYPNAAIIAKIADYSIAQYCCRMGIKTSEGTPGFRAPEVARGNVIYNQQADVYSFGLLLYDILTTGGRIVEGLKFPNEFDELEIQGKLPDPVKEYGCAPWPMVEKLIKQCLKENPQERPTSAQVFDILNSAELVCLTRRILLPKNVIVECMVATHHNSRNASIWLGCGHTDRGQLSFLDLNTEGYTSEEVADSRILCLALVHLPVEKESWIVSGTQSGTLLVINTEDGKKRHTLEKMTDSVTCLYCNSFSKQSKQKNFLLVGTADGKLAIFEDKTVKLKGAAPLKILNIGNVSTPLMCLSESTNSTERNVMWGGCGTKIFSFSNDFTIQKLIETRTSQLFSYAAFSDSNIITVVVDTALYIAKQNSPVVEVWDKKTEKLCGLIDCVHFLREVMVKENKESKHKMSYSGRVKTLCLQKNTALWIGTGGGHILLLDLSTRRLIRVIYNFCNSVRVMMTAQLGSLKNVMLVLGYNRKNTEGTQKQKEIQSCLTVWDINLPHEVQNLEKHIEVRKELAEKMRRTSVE
In general, IC50 refers to the concentration that inhibits the measured activity by half. As for `CC1NN=CC1Nc1ncc2cc(Cl)c(N3CCC(C)(O)C(C)C3)cc2n1` (stereo unspecified), the IC50 was 0.0646 nM.
Consider `CC(C)(O)CN1CCN(c2cc3nc(Nc4cnn(C5CC5)c4Cl)ncc3cc2Cl)CC1`, for which the IC50 was 0.0759 nM.
Consider `Clc1cc2cnc(Nc3cnn(C45CC(C4)C5)c3Cl)nc2cc1N1CCC2(CCCO2)CC1`, for which the IC50 was 0.174 nM.
In the case of `CC(C)(C)Cn1cc(Nc2ncc3cc(Cl)c(N4CCC(C5(C)COC5)CC4)cc3n2)cn1`, the IC50 is 0.187 nM.
With `Cc1c(Nc2ncc3cc(Cl)c(N4C(=O)OC[C@H]4C)cc3n2)cnn1C1CCOCC1`, the IC50 is 0.451 nM.
For `CC1(O)CCN(c2cc3nc(Nc4cnn(C5CC5)c4Cl)ncc3cc2Cl)C1` (stereo unspecified), the IC50 is 0.169 nM.
